## CN1C(C(=O)Nc2ccccn2)=C(O)c2sccc2S1(=O)=O
In PEG-400, 298.15 K
  solubility (mole fraction): 0.00976
In PEG-400, 303.15 K
  solubility (mole fraction): 0.0131
In PEG-400, 308.15 K
  solubility (mole fraction): 0.0175
In PEG-400, 313.15 K
  solubility (mole fraction): 0.0227
In PEG-400, 323.15 K
  solubility (mole fraction): 0.0345
In ethanol, 298.15 K
  solubility (mole fraction): 3.71e-05
In ethanol, 303.15 K
  solubility (mole fraction): 4.11e-05
In ethanol, 308.15 K
  solubility (mole fraction): 4.56e-05
In ethanol, 313.15 K
  solubility (mole fraction): 4.98e-05
In ethanol, 323.15 K
  solubility (mole fraction): 5.84e-05
In ethyl acetate, 298.15 K
  solubility (mole fraction): 0.000679
In ethyl acetate, 303.15 K
  solubility (mole fraction): 0.000746
In ethyl acetate, 308.15 K
  solubility (mole fraction): 0.000825
In ethyl acetate, 313.15 K
  solubility (mole fraction): 0.000908
In ethyl acetate, 323.15 K
  solubility (mole fraction): 0.00106
In ethylene glycol, 298.15 K
  solubility (mole fraction): 0.000213
In ethylene glycol, 303.15 K
  solubility (mole fraction): 0.000246
In ethylene glycol, 308.15 K
  solubility (mole fraction): 0.000283
In ethylene glycol, 313.15 K
  solubility (mole fraction): 0.000324
In ethylene glycol, 323.15 K
  solubility (mole fraction): 0.000441
In isopropanol, 298.15 K
  solubility (mole fraction): 6.27e-05
In isopropanol, 303.15 K
  solubility (mole fraction): 8.91e-05
In isopropanol, 308.15 K
  solubility (mole fraction): 0.000125
In isopropanol, 313.15 K
  solubility (mole fraction): 0.000164
In isopropanol, 323.15 K
  solubility (mole fraction): 0.000267
In n-butanol, 298.15 K
  solubility (mole fraction): 8.13e-05
In n-butanol, 303.15 K
  solubility (mole fraction): 0.000105
In n-butanol, 308.15 K
  solubility (mole fraction): 0.000134
In n-butanol, 313.15 K
  solubility (mole fraction): 0.000163
In n-butanol, 323.15 K
  solubility (mole fraction): 0.000239
In propylene glycol, 298.15 K
  solubility (mole fraction): 0.000194
In propylene glycol, 303.15 K
  solubility (mole fraction): 0.000235
In propylene glycol, 308.15 K
  solubility (mole fraction): 0.000275
In propylene glycol, 313.15 K
  solubility (mole fraction): 0.000327
In propylene glycol, 323.15 K
  solubility (mole fraction): 0.000437
In sec-butanol, 298.15 K
  solubility (mole fraction): 6.15e-05
In sec-butanol, 303.15 K
  solubility (mole fraction): 8.79e-05
In sec-butanol, 308.15 K
  solubility (mole fraction): 0.000123
In sec-butanol, 313.15 K
  solubility (mole fraction): 0.000163
In sec-butanol, 323.15 K
  solubility (mole fraction): 0.000272
In transcutol, 298.15 K
  solubility (mole fraction): 0.00183
In transcutol, 303.15 K
  solubility (mole fraction): 0.00202
In transcutol, 308.15 K
  solubility (mole fraction): 0.00222
In transcutol, 313.15 K
  solubility (mole fraction): 0.00241
In transcutol, 323.15 K
  solubility (mole fraction): 0.00286
In water, 298.15 K
  solubility (mole fraction): 4.11e-06
In water, 303.15 K
  solubility (mole fraction): 5.07e-06
In water, 308.15 K
  solubility (mole fraction): 6.46e-06
In water, 313.15 K
  solubility (mole fraction): 8.33e-06
In water, 323.15 K
  solubility (mole fraction): 1.38e-05
